The values that follow come from PMC2063630 (The Journal of Cell Biology, 2007).

The subject of one series is p38 and JNK isoforms. To be noted: high concentrations; ref Kuma et al., 2005; cited from earlier work.
In series [1] the test system is endogenous WNK1 in 293 cells. The format is cell-based. The note with it: for activation of WNK1 by other stimuli, in words: serum-deprived 16 h, stimulus 30 min.
Series [2] concerns WNK1 localization in 293 cells. Briefly: WNK1 localization in 293 cells by confocal and live-cell imaging, FRAP. The format is cell-based. To be noted: for time to redistribution of GFP-WNK1 to intracellular vesicles / time to reversal after removal (WNK1 diffuse in cytosol): live 293 cells; for time to redistribution of GFP-WNK1 to intracellular vesicles: 0.2 M sorbitol or 0.2 M NaCl; for time to reversal after removal (WNK1 diffuse in cytosol): removal of sorbitol or NaCl; for FRAP: time to redistribution to photobleached area: sorbitol- or NaCl-treated 293 cells.

Another series has as its system ERK1/2. Kind of series: ERK activation in 293 cells. The format is cell-based.
The next series relates to p38 and JNK. Kind of series: p38 / JNK activation in 293 cells. The format is cell-based. To be noted: 30 min.
For series [3], the system named is endogenous SPAK and OSR1 in HeLa cells. Kind of series: SPAK/OSR1 activity in HeLa cells. The format is cell-based. To be noted: 0.5 M sorbitol, 30 min, CATCHtide.
For series [4], the system named is endogenous SPAK and OSR1 in 293 cells. Briefly: SPAK/OSR1 activity in 293 cells. The format is cell-based. To be noted: sorbitol, CATCHtide (Fig. S1).
The test system of series [5] is SPAK and OSR1 T-loop and S-motif. Briefly: SPAK/OSR1 T-loop and S-motif phosphorylation. The format is cell-based. To be noted: sorbitol, HeLa and 293 cells.
The test system of series [6] is endogenous WNK1 in 293 cells. The format is cell-based, human. To be noted: 0.5 M sorbitol.
Series [7] addresses OSR1 CCT domain (residues 429–527) (Homo sapiens, UniProt O95747). Briefly: Surface plasmon resonance. The format is binding. To be noted: BiaCore, OSR1 CCT domain 6.8–340 nM; vs nonphosphorylated peptide. Background: In SPR one partner is held on a chip, and binding of the other changes the refractive index at the surface.
In series [8] the test system is OSR1[D164A] phosphorylation by WNK1[1–661]. Kind of series: Activity of WNK1[1–661] forms expressed in E. coli. The format is biochemical. The note with it: mean of duplicate samples.
Series [9] deals with WNK1 Ser382. Briefly: WNK1 Ser382 phosphorylation, forms expressed in E. coli. The format is biochemical.
In series [10] the test system is OSR1[D164A] phosphorylation by WNK1[1–667]. Kind of series: Activity of GST-WNK1[1–667] forms expressed in 293 cells. The format is cell-based.
In series [11] the test system is WNK1 Ser382. Kind of series: WNK1 Ser382 phosphorylation, forms expressed in 293 cells. The format is cell-based. To be noted: 0.5 M sorbitol, 30 min, phospho-Ser382 antibody.
Series [12] addresses OSR1 CCT domain (residues 429-527) (human, UniProt O95747 429-527). Kind of series: SPR.
The mark [13] stands for this setting: PD184352 2 μM 30 min preincubation, 0.5 M sorbitol 30 min.
[14] abbreviates: U0126, 0.5 M sorbitol, not depicted.

Read-outs that look alike come from different tables or passages of the source. Square brackets hold non-standard residues; d marks the D form. Ends that are not written are not given here. * marks the point of attachment. Biotin = O=C1N[C@H]2[C@H](CS[C@H]2CCCCC(=O)*)N1; pS = N[C@@H](COP(=O)(O)O)C(=O)O

Sequence of OSR1 CCT domain (residues 429–527) (O95747 429-527): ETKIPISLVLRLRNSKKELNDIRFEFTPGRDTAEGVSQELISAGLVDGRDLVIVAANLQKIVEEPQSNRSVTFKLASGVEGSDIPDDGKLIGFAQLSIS
Sequence of OSR1 CCT domain (residues 429-527) (O95747 429-527): as above

For the molecule `Cc1ccc(-n2nc(C(C)(C)C)cc2NC(=O)Nc2ccc(OCCN3CCOCC3)c3ccccc23)cc1` [BIRB0796], the “inhibition of p38 and JNK isoforms, in words” value in the series on p38 and JNK isoforms was “inhibit all p38 and JNK isoforms”.

Take `OO` [H2O2]: in [1], the “activation of WNK1 by other stimuli, in words” value is reported as “failed to induce activation of WNK1”.

In the case of `[Cl-].[K+]` [KCl], the “fold increase of WNK1 activity” value in series [1] (0.5 M KCl, 30 min) is “threefold”.

On to `[Cl-].[Na+]` [NaCl], for which, in series [1] (NaCl, 30 min), the “concentration at which WNK1 activation was detectable” value is 50 mM and the “concentration for maximal WNK1 activation” value came to 0.15 M. Moreover, in series [2], the “time to redistribution of GFP-WNK1 to intracellular vesicles” value is reported as at most 0.5 min, the “time to reversal after removal (WNK1 diffuse in cytosol)” value is reported as at most 2 min and the “FRAP: time to redistribution to photobleached area” value is reported as at most 2 min.

As for `O=C(NOCC1CC1)c1ccc(F)c(F)c1Nc1ccc(I)cc1Cl` [PD184352], the “effect on WNK1 activation by sorbitol” value in series [1] (setting [13]) is “without affecting WNK1 activation”. In the series with ERK1/2 (setting [13]), the “effect on ERK activation by sorbitol” value is recorded as “abolished ERK activation by sorbitol”.

In the case of `C[S+]([O-])c1ccc(-c2nc(-c3ccncc3)c(-c3ccc(F)cc3)[nH]2)cc1` (centres unmarked) [SB203580], the “effect on WNK1 activation by sorbitol” value in [1] is given as “failed to prevent activation of WNK1 by sorbitol”.

Consider `CCCCCCCCCCCCCC(=O)O[C@@H]1[C@@H](C)[C@@]2(O)[C@@H](C=C(CO)C[C@]3(O)C(=O)C(C)=C[C@@H]23)[C@@H]2C(C)(C)[C@]12OC(C)=O` [TPA], for which, in series [1], the “activation of WNK1 by other stimuli, in words” value is given as “failed to induce activation of WNK1”.

On to `N#CC(=C(/N)Sc1ccccc1N)/C(C#N)=C(/N)Sc1ccccc1N` [U0126], for which the “effect on WNK1 activation by sorbitol” value in series [1] (setting [14]) is reported as “without affecting WNK1 activation”. Further, in the series with ERK1/2 (setting [14]), the “effect on ERK activation by sorbitol” value was “abolished ERK activation by sorbitol”.

For the molecule `COc1ccc(C[C@H]2NC[C@H](O)[C@H]2OC(C)=O)cc1` [anisomycin], the “activation of WNK1 by anisomycin, in words” value in series [1] (anisomycin 10 μg/ml, 30 min) is listed as “failed to activate WNK1”. Also, the “p38 and JNK stimulation, in words” value with p38 and JNK (anisomycin 10 μg/ml) is “potently stimulates p38 and JNK”.

On to `CCCCNc1cc(C(=O)O)cc(S(N)(=O)=O)c1Oc1ccccc1` [bumetanide], for which the “activation of WNK1 by other stimuli, in words” value in series [1] is reported as “failed to induce activation of WNK1”.

For the molecule `COC[C@@H]([C@H](O)[C@H](O)C(=O)NCC[C@H](C)c1nc(/C=C/C[C@@H]2O[C@]3(C[C@@H](O)[C@@H]2C)O[C@H]([C@H](C[C@H](O)[C@H](C)[C@H](O)[C@H](C)/C=C(C)/C(C)=C/C=C/C(C)=C\C#N)OC)[C@H](OP(=O)(O)O)C3(C)C)co1)N(C)C` [calyculin A], the “activation of WNK1 by other stimuli, in words” value in series [1] is “failed to induce activation of WNK1”.

As for `OC[C@@H](O)[C@@H](O)[C@H](O)[C@@H](O)CO` [sorbitol], the “fold increase of WNK1 activity” value in series [1] (0.1–1.0 M sorbitol, 30 min, dose-dependent) is “fivefold”. Moreover, in series [1] (0.5 M sorbitol), the “duration of sustained WNK1 activation” value is listed as 80 min, the “time at which WNK1 activation was detected” value is at most 0.5 min and the “time to maximal WNK1 activation” value fell in the range of 1 to 2 min. Moreover, the “fold increase of WNK1 activity (OSR1 phosphorylation rate)” value in [1] (0.5 M sorbitol, 30 min, vs nontreated cells, duplicate samples) is “approximately threefold”. Besides, the “ERK1/2 stimulation, in words” value in the series with ERK1/2 (0.5 M sorbitol, 30 min) is recorded as “stimulated the extracellular signal–regulated kinase (ERK) 1/2”. In addition, the “p38 and JNK stimulation, in words” value in the series on p38 and JNK (0.5 M sorbitol) is “stimulated the extracellular signal–regulated kinase (ERK) 1/2, p38, and JNK protein kinases”. The “fold increase of SPAK/OSR1 activity” value in [3] is “approximately fivefold”. Further, the “fold increase of SPAK/OSR1 activity” value in series [4] is “approximately fourfold”. The “SPAK/OSR1 T-loop and S-motif phosphorylation, in words” value in series [5] was “markedly stimulated the phosphorylation of endogenously expressed SPAK and OSR1 at both the T-loop and S-motif”. Also, in [6] (32P-labelled 293 cells, 20 min), the “WNK1 phosphorylation sites stimulated, in words” value was “Phosphorylation of two sites, Ser1261 and Ser 2372, was stimulated”. Moreover, in series [6] (unlabeled 293 cells, LC-MS, 30 min), the “WNK1 phosphorylation sites enhanced, in words” value was “five residues (Ser15, Ser167, Ser382, Ser1261, and Thr1848) whose phosphorylation was markedly enhanced”. For the same molecule, the “WNK1 localization, in words” value in series [2] (0.2 M sorbitol, 1 min) was “WNK1 was strikingly observed on discrete intracellular structures”. Further, in series [2], the “time to redistribution of GFP-WNK1 to intracellular vesicles” value is at most 0.5 min, the “time to reversal after removal (WNK1 diffuse in cytosol)” value is reported as at most 2 min and the “FRAP: time to redistribution to photobleached area” value is listed as at most 2 min.

For the molecule “AGRRFIVpSPVPESRL (AGRRFIV[pS]PVPESRL; also: biotin label, attachment end not given here) [phosphorylated Ser1261 peptide]”, the “binding to OSR1 CCT domain, in words” value in series [7] is listed as “bound to OSR1 with a markedly lower affinity”.

On to IGF-1: IGF-1, for which the “activation of WNK1 by other stimuli, in words” value in series [1] was “failed to induce activation of WNK1”.

With TNFα, the “activation of WNK1 by other stimuli, in words” value in series [1] was “failed to induce activation of WNK1”.

In the case of “WNK1[1–661]: wild-type WNK1 fragment expressed in E. coli”, the specific activity in [8] stood at 5.2 U/mg. The “Ser382 phosphorylation after MgATP, in words” value with WNK1 Ser382 [9] (0.1 mM ATP, 10 mM Mg, 1 h) was “did not further increase phosphorylation of Ser382”. The “Ser382 phosphorylation, in words” value in the series with WNK1 Ser382 [9] (expressed in E. coli) is “heavily phosphorylated at Ser382”.

For “WNK1[1–667]: N-terminal fragment of WNK1, GST fusion, expressed in 293 cells”, the specific activity is about 0.13 U/mg in [10] (isolated from sorbitol-stimulated 293 cells) and 0.13 U/mg in series [10] (wild-type, isolated from untreated 293 cells). For the same molecule, in the series on WNK1 Ser382 [11], the “Ser382 phosphorylation induced by sorbitol, in words” value is “Sorbitol markedly increased recognition of WNK1[1–667] by a phospho-Ser382 antibody”.

In turn, “WNK1[S382A, 1–661]: mutant expressed in E. coli” came in with a specific activity in series [8] of 0.15 U/mg.

In the case of “WNK1[S382D, 1–661]: mutant expressed in E. coli”, the specific activity in [8] is listed as 0.26 U/mg.

In series [8], “WNK1[S382E, 1–661]: mutant expressed in E. coli” displayed a specific activity of 0.66 U/mg.

Turning to “WNK1[S382E, 1–667]: Ser382 to Glu mutant of GST-WNK1[1–667]”, the “effect of sorbitol on activity of mutant, in words” value in series [10] (0.5 M sorbitol, 30 min) is listed as “not enhanced by sorbitol stimulation”. The “basal activity, fold over wild-type WNK1[1–667] from untreated cells” value in series [10] (untreated 293 cells) is “over eightfold”.

On to pervanadate, for which the “activation of WNK1 by other stimuli, in words” value in series [1] was “failed to induce activation of WNK1”.

For the molecule Biotin-AGRRFIVSPVPESRL [biotinylated peptide encompassing Ser1261 of WNK1 (biotin-AGRRFIVSPVPESRL)], the dissociation constant Kd in series [12] is about 40 nM.

Usually Kd stands for a measure of binding affinity in units of concentration. A higher Kd goes with lower affinity.
